Columns and labels:
[1] = Chemical stability of compound at pH 7.4 in bovine serum at 1 mg incubated for 48 hrs by HPLC analysis; type: ADME, cell-free; conditions: cattle, pH 7.4, 48 h
SK-OV-3 = assay: Antiproliferative activity against human SK-OV-3 cells assessed as inhibition of cell growth incubated for 48 hrs in absence of beta-glucuronidase by MTT assay; type: functional, cell-based; conditions: SK-OV-3, 48 h
HeLa = assay: Antiproliferative activity against human HeLa cells assessed as inhibition of cell growth incubated for 48 hrs in presence of beta-glucuronidase by MTT assay; type: functional, cell-based
MDA-MB-231 = assay: Antiproliferative activity against human MDA-MB-231 cells assessed as inhibition of cell growth incubated for 48 hrs in presence of beta-glucuronidase by MTT assay; type: functional, cell-based; conditions: MDA-MB-231, 48 h
MCF7 = assay: Antiproliferative activity against human MCF7 cells assessed as inhibition of cell growth incubated for 48 hrs in presence of beta-glucuronidase by MTT assay; type: functional, cell-based; conditions: MCF7, 48 h
[2] = Toxicity in nude mouse xenografted with human MDA-MB-231 cells assessed as pathological changes in spleen at 20 to 40 mg/kg, iv administered every 2 days for 14 days by H and E staining based assay; type: organism-based; conditions: in vivo, 336 h, dose 20-40 mg/kg, time 14 day
[3] = Toxicity in nude mouse xenografted with human MDA-MB-231 cells assessed as pathological changes in kidney at 20 to 40 mg/kg, iv administered every 2 days for 14 days by H and E staining based assay; type: organism-based; conditions: in vivo, 336 h, dose 20-40 mg/kg, time 14 day
[4] = Toxicity in nude mouse assessed as effect on total protein level in serum at 40 mg/kg, iv administered qd for 3 days (reference value: 47.3 g/L); type: organism-based; conditions: in vivo, 72 h, time 3 day
[5] = Toxicity in nude mouse assessed as effect on albumin level in serum at 40 mg/kg, iv administered qd for 3 days (reference value: 31.2 g/L); type: organism-based; conditions: in vivo, 72 h, time 3 day
[6] = Toxicity in nude mouse assessed as effect on globulin level in serum at 40 mg/kg, iv administered qd for 3 days (reference value: 16.1 g/L); type: organism-based; conditions: in vivo, 72 h, time 3 day
[7] = Toxicity in nude mouse assessed as ratio of effect on aspartate aminotransferase level […] level in serum at 40 mg/kg, iv administered qd for 3 days (reference value: 1.38); type: organism-based; conditions: in vivo, 72 h, time 3 day
[8] = Toxicity in nude mouse assessed as effect on neutrophil level at 40 mg/kg, iv administered qd for 3 days (reference value: 7.40 %); type: organism-based; conditions: in vivo, 72 h, time 3 day
[9] = Toxicity in nude mouse assessed as effect on monocytes level at 40 mg/kg, iv administered qd for 3 days (reference value: 37.10 %); type: organism-based; conditions: in vivo, 72 h, time 3 day

**Q.** Which results are given for COc1ccc([C@H]2[C@H](CO)C(=O)N2c2cc(OC)c(OC)c(OC)c2)cc1OCc1ccc(O[C@@H]2O[C@H](C(=O)O)[C@@H](O)[C@H](O)[C@H]2O)cc1?
**A.** Stability [1]: Stable; IC50 (SK-OV-3): > 50000 nM; IC50 (HeLa): 8.9 nM; IC50 (MDA-MB-231): 11.7 nM; IC50 (MCF7): 15.7 nM; Activity [2]: Non-Toxic; Activity [3]: Non-Toxic; Activity [4]: 45.5 g/L; Activity [5]: 29.5 g/L; Activity [6]: 16 g/L; Ratio [7]: 1.59; Activity [8]: 7.9%; Activity [9]: 21.9%
